Results from ChEMBL document CHEMBL2016544, “Low brain penetrant CB1 receptor agonists for the treatment of neuropathic pain” (Bioorg Med Chem Lett, 2012).
Converted amounts (≈) assume the structure as drawn. The source made the active and inactive calls. The rule behind the calls is not given here.

Tests used:
Cannabinoid receptor 1 [1] = target: T1, Cannabinoid receptor 1 (Homo sapiens, UniProt P21554); assay: Agonist activity at CB1 receptor; type: functional
[2] = Intrinsic clearance in rat liver microsomes; type: ADME, Microsome; details: read-out: CLH
[3] = Intrinsic clearance in human liver microsomes; type: ADME, Microsome; details: read-out: CLH
Cannabinoid receptor 1 [4] = target: T1, Cannabinoid receptor 1; assay: Displacement of [3H]CP 55,940 from human CB1 receptor expressed in insect sf9 membranes; type: cell membranes
Cannabinoid receptor 2 = Cannabinoid receptor 2 (Homo sapiens, UniProt P34972); assay: Displacement of [3H]CP 55,940 from human CB2 receptor expressed in insect sf9 membranes; type: cell membranes
[5] = Solubility of the compound at pH 7.4; type: physicochemical; details: buffer
[6] = Oral bioavailability in rat; type: ADME, organism-based; details: in vivo
[7] = Ratio of drug level in brain to plasma in mouse; type: ADME, organism-based; details: read-out: BPR
[8] = Intrinsic clearance in mouse liver microsomes; type: ADME, Microsome; details: read-out: CLH
[9] = Intrinsic clearance in dog liver microsomes; type: ADME, Canis lupus familiaris, Microsome; details: read-out: CLH
[10] = Intrinsic clearance in rabbit liver microsomes; type: ADME, Oryctolagus cuniculus, Microsome; details: read-out: CLH
[11] = Intrinsic clearance in human hepatocytes assessed per million cells; type: ADME, cell-based, Hepatocyte; details: read-out: CLH
[12] = Plasma protein binding in human; type: ADME, cell-free; details: read-out: PPB (converted)
[13] = Plasma protein binding in rat; type: ADME, cell-free; details: read-out: PPB (converted)
[14] = Plasma protein binding in mouse; type: ADME, cell-free; details: read-out: PPB (converted)
[15] = Plasma protein binding in dog; type: ADME, cell-free, Canis lupus familiaris; details: read-out: PPB (converted)
[16] = Plasma protein binding in rabbit; type: ADME, cell-free, Oryctolagus cuniculus; details: read-out: PPB (converted)
[17] = Apparent permeability across human Caco2 cells; type: ADME, cell-based; details: Caco-2
[18] = Efflux ratio of apparent permeability from basolateral to apical side over apical to basolateral side in human Caco2 cells; type: ADME, cell-based; details: Caco-2
[19] = Cmax in mouse plasma at 3 umol/kg, iv; type: ADME, organism-based; set-up: dose 3 umol/kg, route intravenous
[20] = Cmax in mouse brain at 3 umol/kg, iv; type: ADME, organism-based; set-up: dose 3 umol/kg, route intravenous
[21] = Ratio of Cmax in mouse brain to Cmax in mouse plasma at 3 umol/kg, iv; type: ADME
[22] = Ratio of AUC in mouse brain to AUC in mouse plasma at 3 umol/kg, iv; type: ADME; details: read-out: Ratio AUC
[23] = Clearance in rat at 2 mg/kg, iv; type: ADME, organism-based; set-up: dose 2 mg/kg, route intravenous; details: in vivo
[24] = Volume of distribution at steady state in rat at 2 mg/kg, iv; type: ADME, organism-based; set-up: dose 2 mg/kg, route intravenous; details: in vivo, read-out: Vdss
[25] = Half life in rat at 2 mg/kg, iv; type: ADME, organism-based; set-up: dose 2 mg/kg, route intravenous; details: in vivo
[26] = Oral bioavailability in rat at 10 mg/kg; type: ADME, organism-based; details: in vivo
[27] = Cmax in Wistar BRL rat plasma at 24 mg/kg, po by LC-MS/MS analysis; type: ADME, organism-based; set-up: dose 24 mg/kg, route oral
[28] = Cmax in Wistar BRL rat brain at 24 mg/kg, po by LC-MS/MS analysis; type: ADME, organism-based; set-up: dose 24 mg/kg, route oral
[29] = Cmax in Wistar BRL rat CSF at 24 mg/kg, po by LC-MS/MS analysis; type: ADME, organism-based, Cerebrospinal fluid; set-up: dose 24 mg/kg, route oral
[30] = Ratio of Cmax in brain to plasma of Wistar BRL rat at 24 mg/kg, po by LC-MS/MS analysis; type: ADME, organism-based; set-up: dose 24 mg/kg, route oral
[31] = Ratio of AUC in brain to plasma of Wistar BRL rat at 24 mg/kg, po by LC-MS/MS analysis; type: ADME, organism-based; set-up: dose 24 mg/kg, route oral; details: read-out: Ratio AUC
[32] = Ratio of Cmax in CSF to free plasma of Wistar BRL rat at 24 mg/kg, po by LC-MS/MS analysis; type: ADME, organism-based; set-up: dose 24 mg/kg, route oral; details: in vivo
[33] = Ratio of AUC in CSF to free plasma of Wistar BRL rat at 24 mg/kg, po by LC-MS/MS analysis; type: ADME, organism-based; set-up: dose 24 mg/kg, route oral; details: in vivo
[34] = target: Voltage-gated inwardly rectifying potassium channel KCNH2 (Homo sapiens, UniProt Q12809); assay: Displacement of [3H]dofetilide from human ERG
Rattus norvegicus [35] = assay: Analgesic activity in po dosed rat Chung Hargreaves model of neuropathic pain assessed as inhibition of thermal hyperalgesia; type: functional
Rattus norvegicus [36] = assay: Analgesic activity in po dosed rat Chung von Frey model of neuropathic pain assessed as anti-allodynic effect against mechanical stimulus; type: functional
Rattus norvegicus [37] = assay: Analgesic activity in po dosed rat Chung von Frey model of neuropathic pain assessed as anti-allodynic effect against mechanical stimulus in presence of CB1 receptor antagonist rimonabant; type: functional, organism-based
Rattus norvegicus [38] = assay: Toxicity in po dosed rat assessed as catalepsy by ring immobility test; type: organism-based; details: in vivo
Rattus norvegicus [39] = assay: Ratio of MED for toxicity in […] to ED50 for anti-allodynic activity in po dosed rat Chung von Frey model of neuropathic pain; type: functional
[40] = Intrinsic clearance in rat hepatocytes assessed per million cells; type: ADME, cell-based, Hepatocyte; details: read-out: CLH
Rattus norvegicus [41] = assay: Analgesic activity in sc dosed rat Chung von Frey model of neuropathic pain assessed as anti-allodynic effect against mechanical stimulus; type: functional
Rattus norvegicus [42] = assay: Toxicity in sc dosed rat assessed as catalepsy by ring immobility test; type: organism-based; details: in vivo
Rattus norvegicus [43] = assay: Ratio of MED for toxicity in sc dosed rat assessed as catalepsy to ED50 for anti-allodynic activity in sc dosed rat Chung von Frey model of neuropathic pain; type: functional

T1 sequence (P21554 whole entry): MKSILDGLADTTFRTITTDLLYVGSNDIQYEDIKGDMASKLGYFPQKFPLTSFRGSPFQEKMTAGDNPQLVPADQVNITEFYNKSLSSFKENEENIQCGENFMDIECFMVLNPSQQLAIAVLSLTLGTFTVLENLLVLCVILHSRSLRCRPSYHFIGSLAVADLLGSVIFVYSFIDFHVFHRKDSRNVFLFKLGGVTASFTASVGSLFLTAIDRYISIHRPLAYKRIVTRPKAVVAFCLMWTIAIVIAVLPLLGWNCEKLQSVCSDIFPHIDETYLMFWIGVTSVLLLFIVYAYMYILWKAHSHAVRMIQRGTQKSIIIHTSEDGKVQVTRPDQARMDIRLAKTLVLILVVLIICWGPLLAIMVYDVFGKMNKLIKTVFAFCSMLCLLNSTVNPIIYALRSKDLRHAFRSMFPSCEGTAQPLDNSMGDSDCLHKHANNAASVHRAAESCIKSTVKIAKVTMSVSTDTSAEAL
Sequence of Cannabinoid receptor 2 (P34972 whole entry): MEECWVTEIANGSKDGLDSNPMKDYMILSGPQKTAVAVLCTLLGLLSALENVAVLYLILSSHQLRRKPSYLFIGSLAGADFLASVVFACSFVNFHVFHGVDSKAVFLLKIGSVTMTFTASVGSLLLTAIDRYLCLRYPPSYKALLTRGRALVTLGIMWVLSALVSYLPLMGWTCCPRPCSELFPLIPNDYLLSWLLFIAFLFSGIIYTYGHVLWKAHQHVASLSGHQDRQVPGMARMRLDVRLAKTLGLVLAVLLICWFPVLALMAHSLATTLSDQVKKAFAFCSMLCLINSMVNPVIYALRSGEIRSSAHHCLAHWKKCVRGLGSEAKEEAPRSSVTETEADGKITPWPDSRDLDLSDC
Sequence of Voltage-gated inwardly rectifying potassium channel KCNH2 (Q12809 whole entry): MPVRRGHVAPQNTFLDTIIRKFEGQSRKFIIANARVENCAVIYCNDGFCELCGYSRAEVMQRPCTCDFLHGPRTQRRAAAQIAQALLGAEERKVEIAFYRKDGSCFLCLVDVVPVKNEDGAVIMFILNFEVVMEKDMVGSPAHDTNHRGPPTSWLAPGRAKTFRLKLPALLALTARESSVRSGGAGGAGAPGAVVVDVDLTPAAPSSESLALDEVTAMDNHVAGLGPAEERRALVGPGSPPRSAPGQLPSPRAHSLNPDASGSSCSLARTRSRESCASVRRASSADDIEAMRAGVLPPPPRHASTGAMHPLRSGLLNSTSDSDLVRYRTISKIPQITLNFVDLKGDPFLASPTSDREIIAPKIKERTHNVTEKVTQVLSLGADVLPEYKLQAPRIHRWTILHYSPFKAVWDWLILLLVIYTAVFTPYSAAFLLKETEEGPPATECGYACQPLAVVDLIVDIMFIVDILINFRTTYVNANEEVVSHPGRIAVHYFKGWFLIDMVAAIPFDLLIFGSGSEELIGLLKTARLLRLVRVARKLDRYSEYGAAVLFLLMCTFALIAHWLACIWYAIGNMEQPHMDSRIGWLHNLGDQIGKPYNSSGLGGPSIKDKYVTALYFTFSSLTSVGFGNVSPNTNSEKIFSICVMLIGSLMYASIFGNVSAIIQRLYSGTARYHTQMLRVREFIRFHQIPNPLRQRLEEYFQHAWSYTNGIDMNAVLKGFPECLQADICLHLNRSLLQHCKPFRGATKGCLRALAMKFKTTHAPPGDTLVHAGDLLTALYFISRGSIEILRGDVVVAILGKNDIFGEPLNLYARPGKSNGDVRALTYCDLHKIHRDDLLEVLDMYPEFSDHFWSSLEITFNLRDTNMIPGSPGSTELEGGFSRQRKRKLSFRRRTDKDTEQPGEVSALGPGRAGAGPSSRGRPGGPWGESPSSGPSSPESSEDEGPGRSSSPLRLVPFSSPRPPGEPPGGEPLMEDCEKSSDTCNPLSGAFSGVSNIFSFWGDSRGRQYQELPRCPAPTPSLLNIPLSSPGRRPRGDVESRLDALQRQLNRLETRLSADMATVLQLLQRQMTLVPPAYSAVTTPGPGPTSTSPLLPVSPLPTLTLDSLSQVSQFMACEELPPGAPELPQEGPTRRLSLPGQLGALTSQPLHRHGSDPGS

CN(CC(N)=O)Cc1nc(-c2cn(CC3CCOCC3)c3c(Cl)cccc23)ns1
EC50 (Cannabinoid receptor 1 [1]): 631 nM

COc1cccc2c(-c3noc(CN4CCC(C(=O)NCCO)CC4)n3)cn(CC3CCOCC3)c12
EC50 (Cannabinoid receptor 1 [1]): 631 nM

O=C(NCCO)C1CCN(Cc2nc(-c3cn(CC4CCOCC4)c4c(Cl)cccc34)ns2)CC1
EC50 (Cannabinoid receptor 1 [1]): 79.4 nM
microsomal CLint [2]: 49 µL/min/mg
microsomal CLint [3]: 18 µL/min/mg

COc1cccc2c(-c3noc(CN(C)CC(N)=O)n3)cn(CC3CCOCC3)c12
EC50 (Cannabinoid receptor 1 [1]): 2510 nM

CN(CC(=O)NCCO)Cc1nc(-c2cn(CC3CCOCC3)c3c(Cl)cccc23)no1
microsomal CLint [2]: 49 µL/min/mg
microsomal CLint [3]: 66 µL/min/mg

CN(CC(N)=O)Cc1nc(-c2cn(CC3CCS(=O)(=O)CC3)c3c(Cl)cccc23)ns1
EC50 (Cannabinoid receptor 1 [1]): 158 nM
microsomal CLint [2]: 52 µL/min/mg
microsomal CLint [3]: 25 µL/min/mg

NC(=O)CN1CCN(Cc2nc(-c3cn(CC4CCOCC4)c4c(Cl)cccc34)ns2)CC1
EC50 (Cannabinoid receptor 1 [1]): 63.1 nM
microsomal CLint [2]: 23 µL/min/mg
microsomal CLint [3]: 23 µL/min/mg

NC(=O)CN1CCN(Cc2nc(-c3cn(CC4CCOCC4)c4c(Cl)cccc34)no2)CC1
microsomal CLint [2]: < 12 µL/min/mg
microsomal CLint [3]: 12 µL/min/mg
Ki (Cannabinoid receptor 1 [4]): 20 nM
Ki (Cannabinoid receptor 2): 50.1 nM
solubility [5]: 89 µg/mL (≈ 188 µM)
bioavailability [6]: 45%
Kp [7]: 0.16
microsomal CLint [8]: < 12 µL/min/mg
microsomal CLint [9]: 13 µL/min/mg
microsomal CLint [10]: < 12 µL/min/mg
hepatocyte CLint [11]: 3 µL/min/1e6 cells
fraction unbound [12]: 0.04
fraction unbound [13]: 0.039
fraction unbound [14]: 0.034
fraction unbound [15]: 0.063
fraction unbound [16]: 0.037
Papp [17]: 6.2 ×10⁻⁶ cm/s
efflux ratio [18]: 1.5
Cmax [19]: 814 ng/mL
Cmax [20]: 134 ng/g
Kp [21]: 0.16
Kp [22]: 0.16
clearance [23]: 9.5 mL/min/kg
Vd [24]: 2.6 L/kg
half-life [25]: 3.8 h
bioavailability [26]: 45%
Cmax [27]: 722 ng/mL
Cmax [28]: 148 ng/g
Cmax [29]: 6.4 ng/mL
Kp [30]: 0.2
Kp [31]: 0.22
Ratio [32]: 0.23
Ratio AUC [33]: 0.21
Ki [34]: 20000 nM
ED50 (Rattus norvegicus [35]): 2.5 µmol/kg
ED50 (Rattus norvegicus [36]): 17 µmol/kg
Activity (Rattus norvegicus [37]): inactive
MED (Rattus norvegicus [38]): > 160 µmol/kg
Ratio (Rattus norvegicus [39]): >9.3
hepatocyte CLint [40]: 7 µL/min/1e6 cells

NC(=O)CN1CCN(Cc2nc(-c3cn(CC4CCS(=O)(=O)CC4)c4c(Cl)cccc34)no2)CC1
EC50 (Cannabinoid receptor 1 [1]): 501 nM
microsomal CLint [2]: 48 µL/min/mg
microsomal CLint [3]: < 12 µL/min/mg

O=C(NCCO)C1CCN(Cc2nc(-c3cn(CC4CCS(=O)(=O)CC4)c4c(Cl)cccc34)no2)CC1
EC50 (Cannabinoid receptor 1 [1]): 1000 nM
microsomal CLint [2]: < 12 µL/min/mg
microsomal CLint [3]: < 12 µL/min/mg

COc1cccc2c(-c3nsc(CN4CCN(CC(N)=O)CC4)n3)cn(CC3CCOCC3)c12
EC50 (Cannabinoid receptor 1 [1]): 79.4 nM
microsomal CLint [2]: 17 µL/min/mg
microsomal CLint [3]: 17 µL/min/mg
Ki (Cannabinoid receptor 1 [4]): 6.31 nM
Ki (Cannabinoid receptor 2): 15.8 nM
solubility [5]: 5 µg/mL (≈ 10.3 µM)
bioavailability [6]: 40%
Kp [7]: 0.18

NC(=O)CN1CCN(Cc2nc(-c3cn(CC4CCS(=O)(=O)CC4)c4c(Cl)cccc34)ns2)CC1
pEC50 (Cannabinoid receptor 1 [1]): 6.7
microsomal CLint [2]: < 12 µL/min/mg
microsomal CLint [3]: < 12 µL/min/mg

COc1cccc2c(-c3nsc(CN(C)CC(N)=O)n3)cn(CC3CCOCC3)c12
EC50 (Cannabinoid receptor 1 [1]): 1260 nM

O=C(NCCO)[C@H]1CCCN(Cc2nc(-c3cn(CC4CCS(=O)(=O)CC4)c4c(Cl)cccc34)ns2)C1
EC50 (Cannabinoid receptor 1 [1]): 20 nM
microsomal CLint [2]: 32 µL/min/mg
microsomal CLint [3]: 47 µL/min/mg
Ki (Cannabinoid receptor 1 [4]): 31.6 nM
Ki (Cannabinoid receptor 2): 20 nM
solubility [5]: 45 µg/mL (≈ 79.5 µM)
bioavailability [6]: 1%
Kp [7]: 0.03

O=C(NCCO)C1CCN(Cc2nc(-c3cn(CC4CCOCC4)c4c(Cl)cccc34)no2)CC1
microsomal CLint [2]: 18 µL/min/mg
microsomal CLint [3]: 16 µL/min/mg
Ki (Cannabinoid receptor 1 [4]): 3.98 nM
Ki (Cannabinoid receptor 2): 20 nM
bioavailability [6]: 8%
Kp [7]: 0.03

CN(CC(N)=O)Cc1nc(-c2cn(CC3CCS(=O)(=O)CC3)c3c(Cl)cccc23)no1
EC50 (Cannabinoid receptor 1 [1]): 158 nM
microsomal CLint [2]: 33 µL/min/mg
microsomal CLint [3]: 26 µL/min/mg

Cc1c(C(=O)c2cccc3ccccc23)c2cccc3c2n1[C@H](CN1CCOCC1)CO3 [WIN-552122]
bioavailability [6]: 0%
Kp [7]: 1.3
ED50 (Rattus norvegicus [41]): 1.6 µmol/kg
MED (Rattus norvegicus [42]): 5.7 µmol/kg
Ratio (Rattus norvegicus [43]): 3.7

COc1cccc2c(-c3nsc(CN4CCC(C(=O)NCCO)CC4)n3)cn(CC3CCOCC3)c12
EC50 (Cannabinoid receptor 1 [1]): 31.6 nM
microsomal CLint [2]: 33 µL/min/mg
microsomal CLint [3]: 19 µL/min/mg

CN(CC(N)=O)Cc1nc(-c2cn(CC3CCOCC3)c3c(Cl)cccc23)no1.Cl
microsomal CLint [2]: 43 µL/min/mg
microsomal CLint [3]: 36 µL/min/mg
Kp [7]: 0.9
